Target: GABA-B receptor (Rattus norvegicus (Rat), UniProt O88871+Q9Z0U4)
Experiment: [35S]GTPgS Binding Assay (rat brain cortex membranes, native receptor)
Format: biochemical
Conditions: rat cortical membranes; in the presence of 1 μM GABA (EC25); basal binding 0%, maximal binding (1 mM GABA) 100%
Experimental: Preparation of Rat Brain Membranes for Native Receptor Assays
Membranes from rat brain cortex were prepared as described in detail by Olpe et al. and stored at concentrations of 1.66 mg/mL protein at −80° C. until required. (Olpe, H.-R, et al. Eur J Pharmacol 1990; 187: 27-38).
[^35S]GTPgS Binding Assay
The samples were incubated at room temperature for 60 minutes on a shaker. The incubation was stopped by rapid vacuum filtration over glass-fiber filter plates (UniFilter-96 well, GF/B membrane plates, PerkinElmer) using a 96-well plate harvester (TOMTEK© Harvester). The UniFilter plate was washed five times with ice-cold wash buffer (50 mM Tris-HCl buffer, pH 7.7, 10 mM MgCl2, and 100 mM NaCl. After filtration the plate was dried for 90 minutes at 55° C. The plates were closed on the bottom with black sealing membranes, and liquid scintillation cocktail (35 μL, Betaplate Scint, PerkinElmer) was added to each well. After sealing the top of the plate, an additional incubation step of 90 minutes at room temperature followed before measuring the plate. The amount of membrane-bound [^35S]GTPgS was measured using a 96-well plate reader (Microbeta®, PerkinElmer). Nonspecific binding was measured in the presence of unlabeled 10 μM of GTPgS (Millipore) and without GABA. Basal binding was measured in the absence of 1 μM GABA, and maximal binding was measured in the presence of GABA using 1 mM GABA concentrations.
Data analysis. The concentration-response curves of compounds of the present disclosure in the presence of EC25 of GABA-B receptor agonist were generated using the GraphPad Prism® program (GraphPad Software, San Diego, Calif.). Data was normalized using basal binding as 0% and maximal binding as 100%. The curves were fitted by nonlinear regression allowing determination of EC50 values from sigmoidal dose-response curves. Each curve was performed using triplicate sample per date point and 10 concentrations.

Chain of GABA-B receptor (Q9Z0U4 17-960): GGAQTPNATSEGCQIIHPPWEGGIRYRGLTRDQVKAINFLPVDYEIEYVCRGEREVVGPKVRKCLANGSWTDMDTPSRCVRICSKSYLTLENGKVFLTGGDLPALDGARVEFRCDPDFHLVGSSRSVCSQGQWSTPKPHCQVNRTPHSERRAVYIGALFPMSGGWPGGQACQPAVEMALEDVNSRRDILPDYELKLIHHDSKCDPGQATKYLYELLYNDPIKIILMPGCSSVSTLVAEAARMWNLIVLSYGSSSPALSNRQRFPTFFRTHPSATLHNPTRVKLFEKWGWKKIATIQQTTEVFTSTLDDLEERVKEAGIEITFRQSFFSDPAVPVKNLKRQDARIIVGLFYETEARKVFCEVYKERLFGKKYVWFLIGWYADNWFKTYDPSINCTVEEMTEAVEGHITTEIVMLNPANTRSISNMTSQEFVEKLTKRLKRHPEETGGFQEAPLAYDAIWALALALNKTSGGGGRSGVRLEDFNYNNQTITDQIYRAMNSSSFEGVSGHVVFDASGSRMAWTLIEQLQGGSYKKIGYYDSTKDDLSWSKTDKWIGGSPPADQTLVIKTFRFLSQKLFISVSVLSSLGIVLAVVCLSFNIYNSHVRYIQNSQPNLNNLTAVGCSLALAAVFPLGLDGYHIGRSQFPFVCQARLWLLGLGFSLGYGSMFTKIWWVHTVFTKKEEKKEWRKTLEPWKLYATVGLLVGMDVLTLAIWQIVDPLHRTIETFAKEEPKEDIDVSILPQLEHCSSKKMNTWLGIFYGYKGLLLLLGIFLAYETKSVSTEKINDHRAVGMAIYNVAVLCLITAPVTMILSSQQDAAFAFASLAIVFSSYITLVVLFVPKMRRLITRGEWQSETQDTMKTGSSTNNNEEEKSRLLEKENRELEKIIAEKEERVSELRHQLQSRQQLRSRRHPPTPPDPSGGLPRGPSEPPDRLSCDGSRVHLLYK
Chain of GABA-B receptor (O88871 41-940): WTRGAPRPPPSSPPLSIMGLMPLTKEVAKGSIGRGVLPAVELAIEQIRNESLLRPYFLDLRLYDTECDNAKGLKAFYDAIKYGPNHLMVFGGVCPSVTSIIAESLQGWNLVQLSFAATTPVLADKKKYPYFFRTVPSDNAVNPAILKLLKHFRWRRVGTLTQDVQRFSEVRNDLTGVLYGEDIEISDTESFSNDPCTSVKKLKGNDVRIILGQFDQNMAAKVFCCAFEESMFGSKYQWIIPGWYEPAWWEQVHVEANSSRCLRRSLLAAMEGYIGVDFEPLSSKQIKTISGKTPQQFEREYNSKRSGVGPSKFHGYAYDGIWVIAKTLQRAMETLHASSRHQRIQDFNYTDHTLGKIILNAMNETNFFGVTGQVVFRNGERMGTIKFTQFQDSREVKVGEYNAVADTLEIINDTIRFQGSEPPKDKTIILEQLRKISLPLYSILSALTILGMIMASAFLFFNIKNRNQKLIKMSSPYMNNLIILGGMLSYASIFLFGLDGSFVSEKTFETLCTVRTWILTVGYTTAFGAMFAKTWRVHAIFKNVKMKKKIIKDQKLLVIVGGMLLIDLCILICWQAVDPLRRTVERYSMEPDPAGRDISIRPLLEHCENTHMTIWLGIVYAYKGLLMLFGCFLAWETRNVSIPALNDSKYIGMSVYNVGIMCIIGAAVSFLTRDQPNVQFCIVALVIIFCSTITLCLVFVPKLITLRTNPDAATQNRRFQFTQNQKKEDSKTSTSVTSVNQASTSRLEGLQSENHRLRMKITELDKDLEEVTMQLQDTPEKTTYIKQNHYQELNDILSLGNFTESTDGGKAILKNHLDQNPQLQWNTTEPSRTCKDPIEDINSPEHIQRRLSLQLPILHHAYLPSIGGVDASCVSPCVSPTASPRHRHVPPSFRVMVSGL

Compound | EC50 [µM]
COc1ccc(-c2nn(Cc3ccc(Cl)cc3)c(=O)c3c(C)noc23)c(OC)c1 [Example 87, 5-(4-chlorobenzyl)-7-(2,4-dimethoxyphenyl)-3-methyl[1,2]oxazolo[4,5-d]pyridazin-4(5H)-one] | 1.03
CCCc1noc2c(-c3cccc(NC(C)=O)c3)nn(Cc3ccc(Cl)cc3)c(=O)c12 [Example 91, N-{3-[5-(4-chlorobenzyl)-4-oxo-3-propyl-4,5-dihydro[1,2]oxazolo[4,5-d]pyridazin-7-yl]phenyl}acetamide] | 2.12
COc1ccc(OC)c(-c2nn(Cc3ccc(C(F)(F)F)cc3)c(=O)c3c(C)noc23)c1 [Example 95, 7-(2,5-dimethoxyphenyl)-3-methyl-5-[4-(trifluoromethyl)benzyl][1,2]oxazolo[4,5-d]pyridazin-4(5H)-one] | 1.74
Cc1noc2c(-c3cc(F)ccc3N)nn(C(C)c3ccc(Cl)cc3)c(=O)c12 (stereo not drawn) [Example 97, 7-(2-amino-5-fluorophenyl)-5-[1-(4-chlorophenyl)ethyl]-3-methyl[1,2]oxazolo[4,5-d]pyridazin-4(5H)-one] | 1.85
COc1ccc(C(=O)N2CCCC2)cc1-c1nn(C(C)c2ccc(Cl)cc2)c(=O)c2c(C)noc12 (stereo not drawn) [Example 98, 5-[1-(4-chlorophenyl)ethyl]-7-[2-methoxy-5-(pyrrolidin-1-ylcarbonyl)phenyl]-3-methyl[1,2]oxazolo[4,5-d]pyridazin-4(5H)-one] | 0.45
Cc1noc2c(-c3ccccc3O)nn(C(C)c3ccc(Cl)cc3)c(=O)c12 (stereo not drawn) [Example 100, 5-[1-(4-chlorophenyl)ethyl]-7-(2-hydroxyphenyl)-3-methyl[1,2]oxazolo[4,5-d]pyridazin-4(5H)-one] | 0.667
COc1ccccc1-c1nn(Cc2ccc(OC)c(C(F)(F)F)c2)c(=O)c2c(C)noc12 [Example 101, 7-(2-methoxyphenyl)-5-[4-methoxy-3-(trifluoromethyl)benzyl]-3-methyl[1,2]oxazolo[4,5-d]pyridazin-4(5H)-one] | 3.71
COc1ccc(OC)c(-c2nn(Cc3ccc(Cl)cc3)c(=O)c3c(C)noc23)c1 [Example 102, 5-(4-chlorobenzyl)-7-(2,5-dimethoxyphenyl)-3-methyl[1,2]oxazolo[4,5-d]pyridazin-4(5H)-one] | 0.846
COc1ccc(NC(C)=O)cc1-c1nn(C(C)c2ccc(C(F)(F)F)cc2)c(=O)c2c(C)noc12 (stereo not drawn) [Example 103, N-[4-methoxy-3-(3-methyl-4-oxo-5-{(1)-1-[4-(trifluoromethyl)phenyl]ethyl}-4,5-dihydro[1,2]oxazolo[4,5-d]pyridazin-7-yl)phenyl]acetamide] | 0.439
COc1ccc(NC(C)=O)cc1-c1nn([C@H](C)c2ccc(C(F)(F)F)cc2)c(=O)c2c(C)noc12 [Example 105, N-[4-methoxy-3-(3-methyl-4-oxo-5-{(1R)-1-[4-(trifluoromethyl)phenyl]ethyl}-4,5-dihydro[1,2]oxazolo[4,5-d]pyridazin-7-yl)phenyl]acetamide] | 0.033
Cc1noc2c(-c3cccc(C(N)=O)c3)nn(C(C)c3ccc(Cl)cc3)c(=O)c12 (stereo not drawn) [Example 106, 3-{5-[1-(4-chlorophenyl)ethyl]-3-methyl-4-oxo-4,5-dihydro[1,2]oxazolo[4,5-d]pyridazin-7-yl}benzamide] | 0.847
CC(=O)Nc1ccc(C)c(-c2nn(Cc3ccc(C(F)(F)F)cc3)c(=O)c3c(C)noc23)c1 [Example 107, N-(4-methyl-3-{3-methyl-4-oxo-5-[4-(trifluoromethyl)benzyl]-4,5-dihydro[1,2]oxazolo[4,5-d]pyridazin-7-yl}phenyl)acetamide] | 1.47
Cc1noc2c(-c3cccnc3)nn(C(C)c3ccc(Cl)cc3)c(=O)c12 (stereo not drawn) [Example 109, 5-[1-(4-chlorophenyl)ethyl]-3-methyl-7-(pyridin-3-yl)[1,2]oxazolo[4,5-d]pyridazin-4(5H)-one] | 1.21
CNC(=O)c1ccc(OC)c(-c2nn([C@H](C)c3ccc(Cl)cc3)c(=O)c3c(C)noc23)c1 [Example 111, 3-{5-[(1R)-1-(4-chlorophenyl)ethyl]-3-methyl-4-oxo-4,5-dihydro[1,2]oxazolo[4,5-d]pyridazin-7-yl}-4-methoxy-N-methylbenzamide] | > 10
CC(=O)Nc1c(F)ccc(-c2nn([C@H](C)c3ccc(C(F)(F)F)cc3)c(=O)c3c(C)noc23)c1C [Example 112, N-[6-fluoro-2-methyl-3-(3-methyl-4-oxo-5-{(1R)-1-[4-(trifluoromethyl)-phenyl]ethyl}-4,5-dihydro[1,2]oxazolo[4,5-d]pyridazin-7-yl)phenyl]acetamide] | 3.63
Cc1noc2c(-c3cncnc3)nn(C(C)c3ccc(Cl)cc3)c(=O)c12 (stereo not drawn) [Example 113, 5-[1-(4-chlorophenyl)ethyl]-3-methyl-7-(pyrimidin-5-yl)[1,2]oxazolo[4,5-d]pyridazin-4(5H)-one] | 3.84
Cc1nn(C(C)c2ccc(Cl)cc2)c(=O)c2c(C)noc12 (stereo not drawn) [Example 114, 5-[1-(4-chlorophenyl)ethyl]-3,7-dimethyl[1,2]oxazolo[4,5-d]pyridazin-4(5H)-one] | 3.8
CCn1nccc1-c1nn(C(C)c2ccc(Cl)cc2)c(=O)c2c(C)noc12 (stereo not drawn) [Example 115, 5-[1-(4-chlorophenyl)ethyl]-7-(1-ethyl-1H-pyrazol-5-yl)-3-methyl[1,2]oxazolo[4,5-d]pyridazin-4(5H)-one] | 4.12
Cc1noc2c(-c3cnc4cc[nH]c4c3)nn(C(C)c3ccc(Cl)cc3)c(=O)c12 (stereo not drawn) [Example 116, 5-[1-(4-chlorophenyl)ethyl]-3-methyl-7-(1H-pyrrolo[3,2-b]pyridin-6-yl)[1,2]oxazolo[4,5-d]pyridazin-4(5H)-one] | 0.855
COc1ccc(NC(C)=O)cc1-c1nn([C@@H](C)c2ccc(Cl)cc2)c(=O)c2c(C)noc12 [Example 117, N-(3-{5-[(1S)-1-(4-chlorophenyl)ethyl]-3-methyl-4-oxo-4,5-dihydro[1,2]oxazolo[4,5-d]pyridazin-7-yl}-4-methoxyphenyl)acetamide] | 0.043
COc1ccccc1-c1nn(Cc2ccc(C(F)(F)F)cc2)c(=O)c2c(C)noc12 [Example 118, 7-(2-methoxyphenyl)-3-methyl-5-[4-(trifluoromethyl)benzyl][1,2]oxazolo[4,5-d]pyridazin-4(5H)-one] | 2.93
CNC(=O)c1ccc(OC)c(-c2nn(C(C)c3ccc(Cl)cc3)c(=O)c3c(C)noc23)c1 (stereo not drawn) [Example 119, 3-{5-[1-(4-chlorophenyl)ethyl]-3-methyl-4-oxo-4,5-dihydro[1,2]oxazolo[4,5-d]pyridazin-7-yl}-4-methoxy-N-methylbenzamide] | 0.056
Cc1noc2c(-c3cccnc3)nn(Cc3ccc(Cl)cc3)c(=O)c12 [Example 120, 5-(4-chlorobenzyl)-3-methyl-7-(pyridin-3-yl)[1,2]oxazolo[4,5-d]pyridazin-4(5H)-one] | 6.82
Cc1noc2c(-c3ccccc3)nn(Cc3ccc(Cl)cc3)c(=O)c12 [Example 122, 5-(4-chlorobenzyl)-3-methyl-7-phenyl[1,2]oxazolo[4,5-d]pyridazin-4(5H)-one] | 3.8
COc1ccc(OC)c(-c2nn([C@H](C)c3ccc(C(F)(F)F)cc3)c(=O)c3c(C)noc23)c1 [Example 125, 7-(2,5-dimethoxyphenyl)-3-methyl-5-{(1R)-1-[4-(trifluoromethyl)phenyl]ethyl}[1,2]oxazolo[4,5-d]pyridazin-4(5H)-one] | 0.582
Cc1noc2c(-c3cccc(N)c3)nn(C(C)c3ccc(Cl)cc3)c(=O)c12 (stereo not drawn) [Example 126, 7-(3-aminophenyl)-5-[1-(4-chlorophenyl)ethyl]-3-methyl[1,2]oxazolo[4,5-d]pyridazin-4(5H)-one] | 0.501
COc1ccc(-c2nn(Cc3ccc(C(F)(F)F)cc3)c(=O)c3c(C)noc23)c(OC)c1 [Example 127, 7-(2,4-dimethoxyphenyl)-3-methyl-5-[4-(trifluoromethyl)benzyl][1,2]oxazolo[4,5-d]pyridazin-4(5H)-one] | 1.56
COc1ccc(OC)c(-c2nn([C@H](C)c3ccc(Cl)cc3)c(=O)c3c(C4CC4)noc23)c1 [Example 128, 5-[(1R)-1-(4-chlorophenyl)ethyl]-3-cyclopropyl-7-(2,5-dimethoxyphenyl)-[1,2]oxazolo[4,5-d]pyridazin-4(5H)-one] | > 10
CCc1noc2c(-c3cccc(NC(C)=O)c3)nn(Cc3ccc(Cl)cc3)c(=O)c12 [Example 129, N-{3-[5-(4-chlorobenzyl)-3-ethyl-4-oxo-4,5-dihydro[1,2]oxazolo[4,5-d]pyridazin-7-yl]phenyl}acetamide] | 2.11
CCNC(=O)c1ccc(OC)c(-c2nn(C(C)c3ccc(Cl)cc3)c(=O)c3c(C)noc23)c1 (stereo not drawn) [Example 131] | 0.453

From patent US10556914B2, “Substituted isoxazolopyridazinones and isothiazolopyridazinones and methods of use” (AbbVie Inc., priority 2015, dated 2020)
